Data reported in patent US7470537B2, “Adipose-derived stem cells and lattices” (priority 1999, dated 2008).

Experiments:
Format in all cases: cell-based, human
[1] = system: Adipose-derived stem cells; assay: Culture in the presence of 5-azacytidine; settings: exposure to 5-azacytidine
Protocol: Adipose-derived stem cells obtained in accordance with Example 1 were cultured in the presence of 5-azacytidine.

[2] = system: Alkaline phosphatase; assay: Alkaline phosphatase enzyme activity, spectrophotometric; settings: 2 to 3 weeks
Protocol: Cells were washed with PBS and harvested into PBS/0.1% Triton X-100 (PBS/TX100). AP enzyme activity was assayed using a commercial AP enzyme kit (Sigma) and measured at an absorbance of 405 nm. Total protein in each sample was measured based on the Bradford method (Bradford 1976 Anal. Biochem. 72:248-254) using a BCA Protein Assay Kit (Pierce, Rockford, Ill.). AP activity was expressed a nmol p-nitrophenol produced/minute/ug protein. The assay was calibrated using standard p-nitrophenol solutions. Differentiated MSC and NHOst cells were assayed as positive controls while non-induced PLA cells were assayed as a negative control. Values are expressed as the mean±SD.

[3] = system: matrix mineralization; assay: Total calcium, spectrophotometric
Protocol: Cells were washed with PBS (no Ca^2+, no Mg^2+) and harvested in 0.1N HCl. Cells were extracted for a minimum of 4 hours at 4° C. and centrifuged at 1000×g for 5 minutes. Total calcium in the supernatant was determined using Sigma kit #587 and measured at A575 nm. The assay was calibrated using calcium standard solutions. Total protein was determined and the samples were expressed as mM Ca/ug protein. […] Values are expressed as the mean±SD.
Bone formation in vivo is a complex process involving morphogens, hormones and growth factors. Recent work has questioned the efficacy of synthetic glucocorticoids, like dexamethasone (Dex), in mediating osteogenesis. Glucocorticoids appear to inhibit the action of several osteogenic genes including osteocalcin, CBFA-1 and CNI (as reviewed in Cooper, et al., 1999 J. Endocrinol. 163:159-164). It is well established that bone tissue and osteoprogenitor cells are targets of vitamin D action (Chen, et al., 1983 J. Biol. Chem. 258:4350; Chen, et al., 1979 J. Biol. Chem. 254:7491; Narbaitz, et al., 1983 Calcif. Tiss. Int. 35:177) and this metabolite stimulates both AP activity and CNI synthesis by human bone cell populations (Beresford, et al., 1986 Endo 119:1776-1785). […] AP activity and Ca^2+ accumulation were measured over time using commercial kits and normalized with respect to protein and/or time.

[4] = system: PLA cells; assay: Micromass culture chondrogenic nodule formation; settings: induction medium containing TGFβ1 alone
Protocol: Chondrogenic differentiation was induced using a micromass culture protocol as previously described with some modifications (Ahrens, P B, et al., 1977 Dev. Biol. 60:69-82; Denker, A E 1995 Differentiation 59:25-34). Ten microliter drops of the PLA cellular suspension were placed in the center of each well of a 24-well tissue culture plate and on chamber slides. The cells were placed in an incubator at 37° C. at 5% CO2 for two hours to allow cell adherence. The pellets were gently overlaid with control medium and incubated overnight. The medium was replaced by chondrogenic medium [DMEM with 1% FBS supplemented with 10 ng/ml TGF-β1 (R&D Systems, Minneapolis, Minn.), 6.25 μg/ml insulin (Sigma), and 6.25 μg/ml transferrin (Sigma)]. The pellets were induced for six days in chondrogenic medium. At day six and thereafter, 50 μg/ml ascorbic acid-2-phosphate (Sigma) was added to the chondrogenic medium mixture. PLA pellets were harvested at days two, seven, and fourteen after initial induction for analysis. […] HFF cells were cultured as above under micromass and monolayer conditions as a negative control.
In order to assess the relationship of chondrogenic induction to PLA cell, micromass cultures were plated in chondrogenic medium at cell concentrations of 1×10^5, 1×10^6, 2.5×10^6, 5×10^6, 1×10^7, 2×10^7, and 5×10^7 cells per milliliter (cells/ml). […]

Q: How did the “myogenic differentiation of adipose-derived stem cells” value [1] turn out when `Nc1ncn([C@@H]2O[C@H](CO)[C@@H](O)[C@H]2O)c(=O)n1` [5-azacytidine] was run?
A: Its value is “did not induce myogenic differentiation”.

Q: How did the “AP enzyme induction in MSCs” value ([2]; MSCs) turn out when `C[C@@H]1C[C@H]2[C@@H]3CCC4=CC(=O)C=C[C@]4(C)[C@@]3(F)[C@@H](O)C[C@]2(C)[C@@]1(O)C(=O)CO` [Dex, dexamethasone] was run?
A: Its value is 54.2 fold.

Q: And the “AP enzyme induction in PLA cells” value ([2]; PLA cells)?
A: Its value is 17.2 fold.

Q: What about the “overall increase in matrix mineralization in PLA cells” value [3] of the same compound?
A: Its value is 56 fold.

Q: For `C=C1/C(=C\C=C2/CCC[C@]3(C)[C@@H]([C@H](C)CCCC(C)(C)O)CC[C@@H]23)C[C@@H](O)C[C@@H]1O` [VD, 1,25-dihydroxyvitamin D3], which “overall increase in matrix mineralization in PLA cells” value [3] is on record?
A: Its value is 122 fold.

Q: “TGFβ1: transforming growth factor-beta 1” was tested. Which “nodule formation by PLA cells” value [4] did it give?
A: The value was “PLA nodules formed”.
